TGI and GI50 data for 26 compounds are collected here from PubChem BioAssay (NCI).

What all share (test): NCI anticancer screen, dose series, 48 h
In test [1] the test system is NCI-H460 lung.
The test system of test [2] is OVCAR-4 ovarian.
In test [3] the test system is SF-268 CNS.
For test [4], the system named is SF-295 CNS.
Test [5] deals with SK-MEL-5 melanoma.
For test [6], the system named is SNB-19 CNS.
Test [7] has as its system SNB-75 CNS.
In test [8] the test system is NCI/ADR-RES ovarian.
The subject of test [9] is MDA-MB-435.
Test [10] has as its system PC-3 prostate.

Several values for one entry are separate records, joined by “and”; a condition that tells them apart may be missing. Identical values can stand only once.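 Five compound concentrations were applied to cells in 96-well plates for 48 hours; endpoints were derived by simple linear interpolation of the resulting dose-response curve. GI50 is the concentration that inhibits growth by half. The concentration for full growth arrest is given as TGI.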

For `O=C(O)CSc1n[nH]c(-c2ccc(O)cc2)n1`, the TGI in [1], in [2], in test [3], in [4], in [5] and in test [6] was > 100 µM each time. Further, the TGI in test [7] is > 100 µM.
Consider `N#Cc1cn(C2OC(CO)C(O)C2O)c2ncnc(N)c12` (centres undefined), for which the GI50 in test [1] was < 0.0141 µM; in [8], 0.0459 µM; in test [2], 0.0282 µM and 0.0117 µM; in test [3] it was < 0.01 µM; in [4], < 0.0193 µM; in test [5], 0.0416 µM. In test [7], the GI50 is 0.232 µM. In test [5], this compound returned a TGI of 0.109 µM.
For the compound `COc1cc2c3c(n(C)c(=O)c2cc1OC)-c1cc2c(cc1/C3=C\CCCCCN)OCO2`, the GI50 in test [9] was 4.09 µM; in [1], 0.13 µM; in test [8], 2.6 µM; in test [2] it was 17.4 µM; in test [3], 3.92 µM; in test [4], 0.887 µM. The GI50 in test [5] was 3.12 µM; in test [6], 2.49 µM; in [7], 19.5 µM. The TGI was > 90.6 µM in test [9]; 21.7 µM in [1]; > 48.8 µM in [8]; > 94.1 µM in test [2]; 47.9 µM in test [3]; > 42.4 µM in test [4]. Moreover, the TGI in test [5] is 38.2 µM; in test [6] it was 76.5 µM; in [7], > 100 µM.
`COc1ccc2cc(C(=O)/C=C/c3cc(OC)c(OC)c(OC)c3)ccc2c1`: the GI50 is 2.67 µM in test [9]; 1.27 µM in test [1]; 2.82 µM in [2]; 9.84 µM in [10]; 5.11 µM in test [3]; 13 µM in test [4]. Moreover, the GI50 in test [5] is 0.0737 µM; in test [6], 12.9 µM; in test [7] it was 11.8 µM. For the same compound, the TGI was 40.5 µM in test [9]; 5.73 µM in test [1]; > 50 µM in [2]; > 50 µM in test [10]; 13.7 µM in test [3]; > 50 µM in test [4]. Besides, the TGI in test [5] was 1.01 µM; in test [6] it was 26.3 µM; in test [7] it was 39.3 µM.
Consider `CC1OC(OCC2OC(Oc3c(-c4ccc(O)cc4)oc4cc(O)cc(O)c4c3=O)C(OC3OCC(O)(CO)C3O)C(O)C2O)C(O)C(O)C1O` (centres undefined), for which the TGI in test [1], in test [2], in test [3], in [4], in test [5] and in test [6] was > 100 µM in each case. Moreover, in [7], the TGI was > 100 µM.
Consider `COc1ccc2c(c1)[nH]c(=O)c1c3cc(C)c(C)cc3cn21`, for which the GI50 in test [9] is < 0.01 µM; in test [1] it was < 0.018 µM; in test [2], 0.032 µM; in test [10] it was < 0.01 µM; in test [3], < 0.01 µM; in test [4] it was < 0.01 µM. The GI50 in test [5] is < 0.0158 µM; in test [6], < 0.0226 µM; in test [7] it was < 0.01 µM. For the same compound, the TGI amounted to 1.02 µM in [1]; 3.95 µM in test [2]; 1.58 µM in [10]; 1.45 µM in [3]; 0.0763 µM in test [5]; 4.66 µM in [6]. In addition, the TGI in test [7] was 4.37 µM.
For `Cc1ccc(-[n+]2c3cc(N)c(C)cc3nc3cc(C)c(Nc4ccccc4)cc32)cc1`, the GI50 in test [9] was 0.0814 µM; in test [2], 0.333 µM; in test [10], 0.174 µM; in [4], 0.0646 µM; in test [5], 0.147 µM; in test [7] it was 0.154 µM. For the same compound, the TGI amounted to 0.358 µM in [9]; 1.59 µM in [2]; 1.77 µM in [10]; 0.181 µM in test [4]; 0.289 µM in test [5]; 0.419 µM in [7].
As for `CCOc1ccccc1NC(=O)C(=O)CC(=O)c1c(C)n([O-])c2ccccc2[n+]1=O`, the TGI in test [1], in [2], in [3], in test [4], in test [5] and in test [6] was > 100 µM each time. Further, the TGI in test [7] is > 100 µM.
Turning to `O=C1CC(O)C=C1Nc1ccc(Cl)cc1` (centres undefined), the TGI in [1], in test [2], in test [3], in [4], in test [5] and in [6] was > 100 µM each time. Besides, in test [7], the TGI was > 100 µM.
For the compound `N#CCC1COc2ccccc2O1` (centres undefined), the TGI in test [9], in [8], in test [2], in [10], in test [3] and in [4] was > 10 µM in each case. Besides, the TGI in test [5], in [6] and in [7] was > 10 µM throughout.
Consider `Cn1c2c(c3ccccc31)CCN(CCCCN1CCc3c(n(C)c4ccccc34)C1=O)C2`, for which the TGI in [1], in [2], in [3], in test [4], in [5] and in test [6] was > 100 µM each time. Besides, the TGI in [7] is > 100 µM.
For the compound `N#Cc1c(Sc2ccccc2N)cccc1Sc1ccccc1N`, the GI50 in test [9] is 43.2 µM; in test [1], 40.3 µM; in [8], 15.4 µM; in test [2] it was 42.1 µM; in [3] it was 38.4 µM; in test [4], 84 µM. Further, the GI50 in test [5] is 34.7 µM; in test [6] it was 97.5 µM; in test [7], 2.24 µM. The TGI in test [8] is 38.4 µM; in [7] it was 14.5 µM.
Consider `COc1ccc(-c2nc3sc(C)cn3c2/C=C/C(=O)c2cc(OC)c(OC)c(OC)c2)cc1`, for which the GI50 in [9] was 2.61 µM; in test [8], 2.8 µM; in test [2], 3.15 µM; in test [10], 2.28 µM; in test [3] it was 3.53 µM; in test [4], 4.42 µM. In addition, the GI50 is 1.51 µM in [5], 4.55 µM in [6] and 4.09 µM in test [7]. Moreover, the TGI is 7.49 µM in [9]; 8.11 µM in test [8]; > 100 µM in [2]; 7.17 µM in test [10]; > 100 µM in [3]; > 100 µM in test [4]. The TGI in [5] was 2.91 µM; in [6] it was > 100 µM; in test [7], > 100 µM.
`O=C(c1ccccc1)C(c1ccccc1)C1(O)C(=O)Nc2c(Cl)cc(Cl)cc21` (centres undefined): the TGI is > 100 µM in test [1]; 28 µM in test [2]; 51.9 µM in test [3]; 33.1 µM in test [4]; 30.7 µM in test [5]; 55.3 µM in test [6]. The compound also had a TGI in test [7] of 39.7 µM.
On to `CCOC(=O)[C@@]1(C)C=C2O[C@@H]3OC4(CCCCC4)O[C@@H]3C2=C2C(O)=CC=C(O)[C@]21C(=O)OC`, for which the TGI in [1], in test [2], in test [3], in [4], in [5] and in test [6] was > 68 µM throughout. In test [7], the TGI is > 68 µM.
Take `COc1ccc(Cl)cc1Nc1nc(C(F)(F)F)ccc1C(=O)N/N=C/c1c(Cl)cccc1Cl`: the GI50 was > 100 µM in test [9]; 4.52 µM in test [1]; 5.16 µM in [2]; 5.28 µM in [3]; 3.34 µM in test [4]; 11.4 µM in test [6]. Also, the GI50 in test [7] was 11.9 µM. The TGI in [9] is > 100 µM; in test [1], > 100 µM; in test [2], > 100 µM; in test [3], > 100 µM; in test [4], 72.6 µM; in test [6] it was > 100 µM. Further, in [7], the TGI stood at 42.3 µM.
As for `CCc1cccc(C(C)C)c1NC(=O)C(=O)C(Cc1nc2ccccc2[nH]c1=O)C(=O)OC` (centres undefined), the TGI in [1], in [2], in test [3], in test [4], in test [5] and in test [6] was > 100 µM in each case. Moreover, in test [7], the TGI is > 100 µM.
On to `CC1=C(C)C(=O)c2c(cc3ccc4ccccc4n23)C1=O`, for which the TGI in test [1], in test [2], in test [3], in test [4], in [5] and in [6] was > 100 µM in each case. For the same compound, in [7], the TGI is > 100 µM.
With `CC1=C(C(=O)Nc2ccccc2C)C(c2ccccc2)C(C(=O)Nc2ccccc2C)=C(C)N1`, the TGI was > 100 µM in test [1]; > 100 µM in [2]; > 100 µM in [3]; > 100 µM in test [4]; 90 µM in [5]; > 100 µM in test [6]. In addition, the TGI in test [7] is > 100 µM.
In the case of `COc1cc(CCc2ccc(OCCN(C)C)cc2)cc(OC)c1OC`, the TGI was > 100 µM in [1]; > 100 µM in test [2]; > 100 µM in [3]; > 100 µM in [4]; 64.6 µM in test [5]; > 100 µM in test [6]. In test [7], the TGI was > 100 µM.
As to `COC(=O)C1CC2(CC3=C1CCCC3)OCCO2` (centres undefined), the TGI in [1], in [2], in [3], in test [4], in [5] and in test [6] was > 100 µM throughout. In test [7], the TGI was > 100 µM.
`Cc1nc2c(nc1C)C(=O)c1cc(O)ccc1C2=O`: the TGI in test [1] is > 100 µM; in test [2], > 100 µM; in [3] it was > 100 µM; in test [4], > 100 µM; in [5], 29.6 µM; in test [6] it was > 100 µM. The TGI in test [7] was > 100 µM.
In the case of `O=c1oc2cc(OS(=O)(=O)c3ccc(F)cc3)ccc2c2c1CCCCC2`, the GI50 in [9] was > 100 µM; in test [1], > 100 µM; in test [8] it was > 100 µM; in test [2], 5.76 µM; in [3], > 100 µM; in [4], > 100 µM. In addition, the GI50 in test [5] was 5.69 µM; in [6] it was > 100 µM; in [7] it was 19.6 µM. Further, the TGI in test [9], in [1], in [8], in test [2], in test [3] and in test [4] was > 100 µM each time. Moreover, the TGI in [5], in [6] and in test [7] was > 100 µM in each case.
As for `CCOC(=O)c1c2c(n3ccc(NC(=O)CCN4CCCC4)cc13)C(=O)c1ncccc1C2=O`, the GI50 in test [9] was 1.53 µM; in test [8], 1.27 µM; in [10], 1.31 µM; in test [3] it was 0.794 µM; in test [4] it was 1.1 µM; in [5] it was 15.1 µM. The values for the GI50 in test [6] and in test [7] were 1.17 µM and 1.05 µM, respectively. In addition, the TGI in [9] is 3.08 µM; in test [8] it was 4.86 µM; in test [10] it was 2.88 µM; in test [3] it was 2.65 µM; in test [4], 2.67 µM; in test [5] it was 35 µM. Further, the TGI in test [6] is 3.54 µM; in test [7] it was 2.41 µM.
For `COc1nc(N(C)O)nc(N(C)O)n1`, the GI50 was 3.76 µM in [9]; 0.454 µM in test [1]; 2.33 µM in test [2]; 3.1 µM in test [10]; 1.16 µM in test [3]; 2.2 µM in test [4]. The GI50 is 1.47 µM in [5], 2.38 µM in [6] and 10 µM in test [7]. The TGI in test [9] is > 100 µM; in test [1], 8.62 µM; in test [2] it was > 100 µM; in test [10], > 100 µM; in test [3], > 100 µM; in test [4], 9.69 µM. The TGI in test [5] is 23.1 µM; in test [6], > 100 µM; in [7], > 100 µM.
As to `Nn1c(-c2ccccc2)nc2ccc(Br)cc2c1=O`, the TGI in test [1] was > 100 µM; in [2], 86.7 µM; in test [3], > 100 µM; in test [4], > 100 µM; in test [5], > 100 µM; in test [6], > 100 µM. In addition, the TGI in test [7] is > 100 µM.
